Experimental data as given in PubChem BioAssay AID256 (DTP/NCI, 2004).
Several values for one entry are separate records, joined by “and”; a condition that tells them apart may be missing. Identical values can stand only once. Toxic doses and inconclusive results are not listed.

Tested on: CD2F1 mice, L1210 leukemia ip, survival T/C
Assay: NCI In Vivo Anticancer Drug Screen. Data for tumor model L1210 Leukemia (intraperitoneal) in CD2F1 (CDF1) mice
Conditions: higher = longer survival
In short: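 Implant tumor; dose compound or vehicle; measure endpoint in both groups; report treated divided by control.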

[1] = endpoint: mean survival time, dose: 25.0 mg/kg/injection, schedule: Q01DX009 (ip), vehicle: saline with Tween-80
[2] = endpoint: mean survival time, dose: 100.0 mg/kg/injection, schedule: Q01DX009 (ip), vehicle: saline with Tween-80
[3] = endpoint: mean survival time, dose: 100.0 mg/kg/injection, schedule: Q04DX003 (ip), vehicle: saline with Tween-80
[4] = endpoint: mean survival time, dose: 200.0 mg/kg/injection, schedule: Q04DX003 (ip), vehicle: saline with Tween-80
[5] = endpoint: mean survival time, dose: 100.0 mg/kg/injection, schedule: Q01DX001 (ip), vehicle: saline with Tween-80
[6] = endpoint: mean survival time, dose: 200.0 mg/kg/injection, schedule: Q01DX001 (ip), vehicle: saline with Tween-80
[7] = endpoint: mean survival time, dose: 400.0 mg/kg/injection, schedule: Q01DX001 (ip), vehicle: saline with Tween-80
[8] = endpoint: mean survival time, dose: 200.0 mg/kg/injection, schedule: Q01DX009 (ip), vehicle: saline with Tween-80
[9] = endpoint: mean survival time, dose: 400.0 mg/kg/injection, schedule: Q01DX009 (ip), vehicle: saline with Tween-80
[10] = endpoint: mean survival time, dose: 400.0 mg/kg/injection, schedule: Q04DX003 (ip), vehicle: saline with Tween-80
[11] = endpoint: mean survival time, dose: 100.0 mg/kg/injection, schedule: Q04DX003 (ip), vehicle: saline
[12] = endpoint: mean survival time, dose: 200.0 mg/kg/injection, schedule: Q04DX003 (ip), vehicle: saline
[13] = endpoint: mean survival time, dose: 50.0 mg/kg/injection, schedule: Q04DX003 (ip), vehicle: saline

CCCCNC(C)[C@]1(O)Cc2c(O)c3c(c(O)c2[C@@H](OC2CC(N)C(O)C(C)O2)C1)C(=O)c1c(OC)cccc1C3=O (stereo partly drawn)
T/C (endpoint: mean survival time, dose: 0.15 mg/kg/injection, schedule: Q01DX009 (ip), vehicle: water): 106 % of control | T/C (endpoint: mean survival time, dose: 0.31 mg/kg/injection, schedule: Q01DX009 (ip), vehicle: water): 114 % of control | T/C (endpoint: mean survival time, dose: 0.62 mg/kg/injection, schedule: Q01DX009 (ip), vehicle: water): 111 % of control | T/C (endpoint: mean survival time, dose: 1.25 mg/kg/injection, schedule: Q01DX009 (ip), vehicle: water): 112 % of control | T/C (endpoint: mean survival time, dose: 2.5 mg/kg/injection, schedule: Q01DX009 (ip), vehicle: water): 122 % of control | T/C (endpoint: mean survival time, dose: 5.0 mg/kg/injection, schedule: Q01DX009 (ip), vehicle: water): 118 % of control | T/C (endpoint: mean survival time, dose: 10.0 mg/kg/injection, schedule: Q01DX009 (ip), vehicle: water): 88 % of control

CN1CCc2cc3c(cc2C(=O)Cc2ccc4c(c2C1)OCO4)OCO3
T/C [1]: 98 % of control | T/C (endpoint: mean survival time, dose: 50.0 mg/kg/injection, schedule: Q01DX009 (ip), vehicle: saline with Tween-80): 101 % of control | T/C [2]: 103 % of control

COc1ccccc1N1CCCSC1=Nc1ccccc1
T/C (endpoint: mean survival time, dose: 100.0 mg/kg/injection, schedule: Q04DX002 (ip), vehicle: saline): 98 % of control | T/C (endpoint: mean survival time, dose: 200.0 mg/kg/injection, schedule: Q04DX002 (ip), vehicle: saline): 94 % of control

CCOC(=O)c1[nH]cnc1/N=N/N(C)C
T/C (endpoint: mean survival time, dose: 16.5 mg/kg/injection, schedule: Q01DX009 (ip), vehicle: saline with Tween-80): 120 % of control | T/C [2]: 109 % of control | T/C [3]: 105 % of control

O=c1cc[nH]c(=O)o1
T/C (endpoint: mean survival time, dose: 42.0 mg/kg/injection, schedule: Q01DX009 (ip), vehicle: water): 122 % of control | T/C [3]: 114 % of control | T/C [4]: 92 % of control | T/C (endpoint: median survival time, dose: 63.0 mg/kg/injection, schedule: Q01DX009 (ip), vehicle: water): 87 % of control

Nc1cc2c(cc1Br)-c1c(C(=O)O)cccc1C2O (stereo not drawn)
T/C (endpoint: median survival time, dose: 50.0 mg/kg/injection, schedule: Q01DX005 (ip), vehicle: sodium bicarbonate): 100 % of control | T/C (endpoint: median survival time, dose: 100.0 mg/kg/injection, schedule: Q01DX005 (ip), vehicle: sodium bicarbonate): 101 % of control | T/C (endpoint: median survival time, dose: 200.0 mg/kg/injection, schedule: Q01DX005 (ip), vehicle: sodium bicarbonate): 113 % of control | T/C (endpoint: median survival time, dose: 400.0 mg/kg/injection, schedule: Q01DX005 (ip), vehicle: sodium bicarbonate): 122 % of control | T/C (endpoint: median survival time, dose: 800.0 mg/kg/injection, schedule: Q01DX005 (ip), vehicle: sodium bicarbonate): 122 % of control

CCCCCCCCNCCNCCCCCCCC
T/C (endpoint: mean survival time, dose: 3.75 mg/kg/injection, schedule: Q01DX009 (ip), vehicle: Klucel (hydroxypropylcellulose) (HPC)): 95 % of control | T/C (endpoint: mean survival time, dose: 7.5 mg/kg/injection, schedule: Q01DX009 (ip), vehicle: Klucel (hydroxypropylcellulose) (HPC)): 95 % of control | T/C (endpoint: mean survival time, dose: 15.0 mg/kg/injection, schedule: Q01DX009 (ip), vehicle: Klucel (hydroxypropylcellulose) (HPC)): 87 % of control

O=C(/C=C/c1ccccn1)c1ccc(Cl)cc1
T/C (endpoint: mean survival time, dose: 100.0 mg/kg/injection, schedule: Q01DX001 (ip), vehicle: Klucel (hydroxypropylcellulose) (HPC)): 97 % of control | T/C (endpoint: mean survival time, dose: 200.0 mg/kg/injection, schedule: Q01DX001 (ip), vehicle: Klucel (hydroxypropylcellulose) (HPC)): 97 % of control | T/C (endpoint: mean survival time, dose: 400.0 mg/kg/injection, schedule: Q01DX001 (ip), vehicle: Klucel (hydroxypropylcellulose) (HPC)): 105 % of control

Cc1nc(N)[nH]c(=O)c1CCCNc1cccnc1
T/C [5]: 96 % of control | T/C [6]: 92 % of control | T/C [7]: 92 % of control

c1ccc2c(c1)Nc1ccccc1S2
T/C [2]: 92 % of control | T/C [3]: 98 % of control | T/C [8]: 92 % of control | T/C [4]: 108 % of control | T/C [9]: 89 % of control | T/C [10]: 101 % of control

Brc1ccc([Si](c2ccccc2)(c2ccccc2)c2ccc(-c3ccccc3)cc2)cc1
T/C (endpoint: mean survival time, dose: 100.0 mg/kg/injection, schedule: Q01DX009 (ip), vehicle: other): 102 % of control | T/C (endpoint: mean survival time, dose: 200.0 mg/kg/injection, schedule: Q01DX009 (ip), vehicle: other): 96 % of control | T/C (endpoint: mean survival time, dose: 400.0 mg/kg/injection, schedule: Q01DX009 (ip), vehicle: other): 96 % of control

CC(C)NC(=O)CCSCCC(=O)NC(C)C
T/C (endpoint: mean survival time, dose: 25.0 mg/kg/injection, schedule: Q04DX002 (ip), vehicle: other): 89 % of control | T/C (endpoint: mean survival time, dose: 50.0 mg/kg/injection, schedule: Q04DX002 (ip), vehicle: other): 93 % of control | T/C (endpoint: mean survival time, dose: 100.0 mg/kg/injection, schedule: Q04DX002 (ip), vehicle: other): 97 % of control | T/C (endpoint: mean survival time, dose: 200.0 mg/kg/injection, schedule: Q04DX002 (ip), vehicle: other): 89 % of control

O=C(C[n+]1cccc2ccccc21)c1ccc([N+](=O)[O-])cc1
T/C (endpoint: mean survival time, dose: 25.0 mg/kg/injection, schedule: Q04DX002 (ip), vehicle: saline with Tween-80): 102 % of control | T/C (endpoint: mean survival time, dose: 50.0 mg/kg/injection, schedule: Q04DX002 (ip), vehicle: saline with Tween-80): 98 % of control | T/C (endpoint: mean survival time, dose: 100.0 mg/kg/injection, schedule: Q04DX002 (ip), vehicle: saline with Tween-80): 102 % of control

CC1(C)OC1(C)C
T/C [11]: 97 % of control | T/C [12]: 104 % of control | T/C (endpoint: mean survival time, dose: 400.0 mg/kg/injection, schedule: Q04DX003 (ip), vehicle: saline): 97 % of control

Cc1nc(-c2ccccc2)c(Cc2ccccc2O)c(=O)[nH]1
T/C (endpoint: mean survival time, dose: 100.0 mg/kg/injection, schedule: Q01DX001 (ip), vehicle: saline): 97 % of control | T/C (endpoint: mean survival time, dose: 200.0 mg/kg/injection, schedule: Q01DX001 (ip), vehicle: saline): 97 % of control | T/C (endpoint: mean survival time, dose: 400.0 mg/kg/injection, schedule: Q01DX001 (ip), vehicle: saline): 100 % of control

CS(=O)(=O)OCCBr
T/C [13]: 102 % of control

OC(CC(O)(C(F)(F)F)C(F)(F)F)CC(O)(C(F)(F)F)C(F)(F)F
T/C (endpoint: mean survival time, dose: 6.25 mg/kg/injection, schedule: Q01DX009 (ip), vehicle: saline with Tween-80): 95 % of control | T/C (endpoint: mean survival time, dose: 12.5 mg/kg/injection, schedule: Q01DX009 (ip), vehicle: saline with Tween-80): 92 % of control | T/C [1]: 90 % of control

O=[N+]([O-])c1cccc2c(S(=O)(=O)O)cccc12
T/C [3]: 102 % of control | T/C [4]: 98 % of control

Cc1ccc(C)c(NC(=O)Oc2ccc(F)cc2)c1
T/C [5]: 96 % of control | T/C [2]: 94 % of control and 97 % of control | T/C [6]: 86 % of control | T/C [8]: 101 % of control | T/C [7]: 92 % of control | T/C [9]: 93 % of control and 103 % of control

CCOC(=O)CCC(NC(=O)c1cc(Cl)c(N(CC)Cc2cnc3nc(N)nc(N)c3n2)c(Cl)c1)C(=O)OCC (stereo not drawn)
T/C (endpoint: mean survival time, dose: 25.0 mg/kg/injection, schedule: Q01DX009 (ip), vehicle: Klucel (hydroxypropylcellulose) (HPC)): 170 % of control

O=C(CCBr)NCc1ccccc1
T/C [2]: 97 % of control | T/C [3]: 92 % of control | T/C [8]: 98 % of control | T/C [4]: 98 % of control | T/C [9]: 97 % of control | T/C [10]: 95 % of control

Nc1c(O)cc(S(=O)(=O)O)c2ccccc12
T/C (endpoint: mean survival time, dose: 25.0 mg/kg/injection, schedule: Q04DX003 (ip), vehicle: saline): 95 % of control | T/C [13]: 103 % of control | T/C [11]: 109 % of control

Cc1c(C(=O)O)nc(/C=C/C(Cl)(Cl)Cl)[nH]c1=O
T/C (endpoint: mean survival time, dose: 25.0 mg/kg/injection, schedule: Q01DX005 (ip), vehicle: other): 104 % of control | T/C (endpoint: mean survival time, dose: 50.0 mg/kg/injection, schedule: Q01DX005 (ip), vehicle: other): 103 % of control | T/C (endpoint: mean survival time, dose: 100.0 mg/kg/injection, schedule: Q01DX005 (ip), vehicle: other): 97 % of control | T/C (endpoint: mean survival time, dose: 200.0 mg/kg/injection, schedule: Q01DX005 (ip), vehicle: other): 106 % of control | T/C (endpoint: mean survival time, dose: 400.0 mg/kg/injection, schedule: Q01DX005 (ip), vehicle: other): 95 % of control

[Cu+2].[NH-]CC(=O)O.[NH-]CC(=O)O
T/C (endpoint: mean survival time, dose: 5.0 mg/kg/injection, schedule: Q01DX009 (ip), vehicle: saline): 98 % of control | T/C (endpoint: mean survival time, dose: 10.0 mg/kg/injection, schedule: Q01DX009 (ip), vehicle: saline): 104 % of control

Cc1c(NC(=O)Nc2ccc(C3=NCCCN3)cc2)cccc1NC(=O)Nc1ccc(C2=NCCCN2)cc1
T/C (endpoint: mean survival time, dose: 125.0 mg/kg/injection, schedule: Q01DX Z (ip), vehicle: water): 162 % of control | T/C (endpoint: mean survival time, dose: 250.0 mg/kg/injection, schedule: Q01DX Z (ip), vehicle: water): 177 % of control | T/C (endpoint: mean survival time, dose: 500.0 mg/kg/injection, schedule: Q01DX Z (ip), vehicle: water): 224 % of control

Cc1cc(Cl)ccc1NS(=O)(=O)c1cccc([N+](=O)[O-])c1
T/C [3]: 97 % of control | T/C [4]: 93 % of control | T/C [10]: 90 % of control

O=P(O)(c1ccccc1Br)c1ccccc1Br
T/C [13]: 101 % of control | T/C [11]: 97 % of control | T/C [12]: 94 % of control
